Structures are written as SMILES. Read-outs that look alike come from different tables or passages of the source.

The text below walks through data of PMC10108742, “Design, synthesis and evaluation of OA-tacrine hybrids as cholinesterase inhibitors with low neurotoxicity and hepatotoxicity against Alzheimer’s disease” (Journal of Enzyme Inhibition and Medicinal Chemistry, 2023).

For one data set, the target named is T1, hAChE (Homo sapiens, UniProt P22303).
T1 construct: purchased Sigma Aldrich
T1 sequence (P22303 32-614): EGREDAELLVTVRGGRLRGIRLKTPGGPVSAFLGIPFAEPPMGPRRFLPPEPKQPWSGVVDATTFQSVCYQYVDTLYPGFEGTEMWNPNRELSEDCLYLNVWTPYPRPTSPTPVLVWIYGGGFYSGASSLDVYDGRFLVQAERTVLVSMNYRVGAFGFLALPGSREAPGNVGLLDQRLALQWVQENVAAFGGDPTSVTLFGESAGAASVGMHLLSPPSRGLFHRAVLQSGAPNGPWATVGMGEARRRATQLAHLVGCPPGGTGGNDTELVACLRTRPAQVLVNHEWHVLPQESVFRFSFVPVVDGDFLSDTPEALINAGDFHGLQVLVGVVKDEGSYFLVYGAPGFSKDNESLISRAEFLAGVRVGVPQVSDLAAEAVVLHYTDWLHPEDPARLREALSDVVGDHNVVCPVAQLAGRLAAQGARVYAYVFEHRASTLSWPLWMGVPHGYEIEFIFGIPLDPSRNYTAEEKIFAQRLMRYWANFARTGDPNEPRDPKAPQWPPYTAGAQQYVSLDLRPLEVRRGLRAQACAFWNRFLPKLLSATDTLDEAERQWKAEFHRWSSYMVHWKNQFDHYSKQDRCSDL
Description: biochemical. Here is the method:
The capacity of all the target compounds to inhibit hAChE and hBuChE activities were assessed by Ellman’s method. […] Results are expressed as the mean ± SD of at least three different experiments performed in triplicate.
Buffer was freshly prepared and stored in the refrigerator. […] All solutions were stored in Eppendorf caps in the refrigerator or freezer, if necessary. […] The final concentrations for the enzymatic assay were yielded by diluting the stock solution with bi-distilled water.
(§1) A mixture of the DTNB solution (160 µL), enzyme solution (50 µL) and compounds solutions (10 µL, 3 different concentrations and once blank water) was prepared and incubated at 37 °C for 10 min. The substrate (30 µL) was added to start the enzymatic reaction. […] All measurements were performed as triplicates.

The next data set has as its target T2, hBuChE (Homo sapiens, UniProt P06276).
T2 construct: purchased Sigma Aldrich
Description: hBuChE inhibition, Ellman's method. It counts as biochemical. Conditions: hBuChE from human serum, mean ± SD of three experiments. The protocol: hAChE, hBuChE, Acetylcholinesterase Activity Assay Kit and Butyrylcholinesterase Activity Assay Kit were purchased from Sigma Aldrich. […] The capacity of all the target compounds to inhibit hAChE and hBuChE activities were assessed by Ellman’s method. […] Results are expressed as the mean ± SD of at least three different experiments performed in triplicate.
Preparation of 50 mM Tris–HCl buffer solutions: 5 ml Tris solution (1 M, Ph 8.5, Beyotime Biotechnology) was dissolved in distilled water (95 ml) and adjusted with HCl to a pH of 8.0 ± 0.1. Buffer was freshly prepared and stored in the refrigerator. […] All solutions were stored in Eppendorf caps in the refrigerator or freezer, if necessary. […] The final concentrations for the enzymatic assay were yielded by diluting the stock solution with bi-distilled water.
as §1
(Ellman's reagent forms a yellow product with free thiols.)

In another data set the test system is SH-SY5Y cells. Description: Cell viability in SH-SY5Y cells, CCK-8 assay. Conditions: 24 h. The protocol: (§2) Figure 5. Effects of various concentrations of compounds on cell viability in SH-SY5Y cells and HepG2 cells after treatment for 24 h. Cell viability was measured by CCK-8 assay. Data were shown as mean ± SD of three independent experiments.
(§3) HepG2 and SH-SY5Y cells were obtained from the Cell Bank of Shanghai Institute of Biochemistry and Cell Biology, Chinese Academy of Sciences (Shanghai, China). HepG2 and SH-SY5Y cells were cultured in MEM or MEM/F12 supplemented with 10% FBS, 100 units mL^−1 penicillin/streptomycin and maintained in a humidified atmosphere of 5% CO2 at 37 °C. Initially, 8000 cells per well were seeded in 96-well plates for HepG2 or SH-SY5Y cells, then treated with vehicle alone or tested compounds for 24 h. Then 10 μL CCK8 purchased from CELLCOOK was added to each well and further incubated for another 3 h. The absorbance was measured using a microplate reader (450 nm).
(Tetrazolium dyes change colour on reduction, which living cells bring about.)

Data set [1] relates to HepG2 cells. Description: Cell viability in HepG2 cells, CCK-8 assay. Particulars: 24 h. The protocol: as §2, §3
The subject of data set [2] is HepG2 cells. Description: Apoptosis in HepG2 cells, AnnexinV/PI double staining, flow cytometry. Conditions: 50 μM, 24 h, control group 4.34%. The protocol: Figure 6. […] Apoptotic cells detected by flow cytometry after AnnexinV and PI double staining.
Annexin V-FITC and propidium iodide were used to evaluate apoptotic cells by flow cytometry. Cells were treated with different concentrations of tested compounds for 24 h. Then the cells were washed twice with phosphate-buffered saline (PBS) (centrifugation at 2000 rpm, 5 min). The collected cells were then resuspended in 500 μL of binding buffer. After stained with 5 μL AnnexinV-FITC and 5 μL propidium iodide at room temperature for 15 min. Cells were then analysed by BD Accuri C6 flow cytometer with cell quest software (Becton & Dickinson Company, Franklin Lakes, NJ). Cells undergoing apoptosis are both Annexin V positive and PI negative.

Data set [3] relates to HepG2 cells. Description: Intracellular ROS production in HepG2 cells, DCFH-DA, flow cytometry. Conditions: 50 μM, compared with control / tacrine group. Here is the method: The percentage of cells for ROS was stained with DCFH-DA and the stained cells were immediately determined by flow cytometry.
The level of intracellular ROS was measured by using the ROS-sensitive dye, 2′,7′-dichloro-fluorescein diacetate (DCFH-DA), as a probe. In brief, cells were seeded in six-well plates at 2.0 × 10^5 cells/well, treating with different tested compounds for 24 h, and then washed three times and incubated with final concentration of 10 μM DCFH-DA for 30 min at 37 °C in the dark. After incubation, cells were washed three times and harvested in free-serum medium. […] Data were processed by using cell quest software (Becton & Dickinson Company, Franklin Lakes, NJ).

Setting [4] is: hAChE from human erythrocytes, mean ± SD of three experiments.

T2 sequence (P06276 29-602): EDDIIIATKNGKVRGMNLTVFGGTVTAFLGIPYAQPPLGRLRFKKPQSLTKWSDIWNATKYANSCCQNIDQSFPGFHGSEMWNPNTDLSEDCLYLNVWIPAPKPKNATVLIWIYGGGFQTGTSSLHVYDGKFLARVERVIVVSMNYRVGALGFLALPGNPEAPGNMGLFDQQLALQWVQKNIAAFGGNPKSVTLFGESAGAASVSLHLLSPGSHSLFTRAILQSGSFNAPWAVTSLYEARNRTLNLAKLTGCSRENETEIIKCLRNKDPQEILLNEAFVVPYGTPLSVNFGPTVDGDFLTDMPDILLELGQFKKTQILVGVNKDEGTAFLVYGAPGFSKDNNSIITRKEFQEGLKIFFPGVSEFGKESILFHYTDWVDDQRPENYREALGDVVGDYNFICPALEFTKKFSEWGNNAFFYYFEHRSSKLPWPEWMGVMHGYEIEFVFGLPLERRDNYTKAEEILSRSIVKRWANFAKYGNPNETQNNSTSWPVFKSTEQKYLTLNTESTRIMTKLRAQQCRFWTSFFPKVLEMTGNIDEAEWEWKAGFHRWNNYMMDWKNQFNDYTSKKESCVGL

As a reminder, the IC50 is the concentration needed to halve the response being measured. For `CC1(C)CC[C@]2(C(=O)NCCNc3c4c(nc5c(Cl)cccc35)CCCC4)CC[C@]3(C)C(=CCC4[C@@]5(C)CC[C@H](O)C(C)(C)C5CC[C@]43C)C2C1` (stereo partly drawn) [Compound C1, N-(2-((5-chloro-1,2,3,4-tetrahydroacridin-9-yl)amino)ethyl)-olean-12-en-28-amide], the IC50 against hAChE and at hBuChE (read-out: IC50 hBuChE) was greater than 10 µM throughout.
`CC1(C)CC[C@]2(C(=O)NCCCCCCNc3c4c(nc5c(Br)cccc35)CCCC4)CC[C@]3(C)C(=CCC4[C@@]5(C)CC[C@H](O)C(C)(C)C5CC[C@]43C)C2C1` (stereo partly drawn) [Compound E5, N-(6-((5-bromo-1,2,3,4-tetrahydroacridin-9-yl)amino)hexyl)-olean-12-en-28-amide]: the IC50 at hAChE and at hBuChE (read-out: IC50 hBuChE) was greater than 10 µM throughout.
Take `CC1(C)CC[C@]2(C(=O)NCCCNc3c4c(nc5c(Cl)cccc35)CCCC4)CC[C@]3(C)C(=CCC4[C@@]5(C)CC[C@H](O)C(C)(C)C5CC[C@]43C)C2C1` (stereo partly drawn) [Compound C2, N-(3-((5-chloro-1,2,3,4-tetrahydroacridin-9-yl)amino)propyl)-olean-12-en-28-amide]: the IC50 against hAChE and on hBuChE (read-out: IC50 hBuChE) was greater than 10 µM each time.
Regarding `Nc1c2c(nc3ccccc13)CCCC2` [Tacrine], the “cytotoxicity to SH-SY5Y cells (cell viability)” value with SH-SY5Y cells (50–100 μM) is “cytotoxic”. Besides, the “cytotoxicity to HepG2 cells (cell viability)” value in the data set with HepG2 cells [1] (50–100 μM) is reported as “cytotoxic”. Also, in the data set with HepG2 cells [2], the “percentage of apoptotic cells” value is given as 18.90%. In the data set with HepG2 cells [3], the “intracellular ROS levels (in words)” value was “significant hepatotoxicity”.
`CC1(C)CC[C@]2(C(=O)NCCCCCNc3c4c(nc5c(F)cccc35)CCCC4)CC[C@]3(C)C(=CCC4[C@@]5(C)CC[C@H](O)C(C)(C)C5CC[C@]43C)C2C1` (stereo partly drawn) [Compound G4, N-(5-((5-fluoro-1,2,3,4-tetrahydroacridin-9-yl)amino)pentyl)-olean-12-en-28-amide]: at hAChE, the IC50 was greater than 10 µM and the “SI (selectivity index, hBuChE/hAChE)” value is less than 0.16. The IC50 on hBuChE (read-out: IC50 hBuChE) came to 1.6 ± 0.0904 µM.
With `CC1(C)CC[C@]2(C(=O)NCCCCCNc3c4c(nc5ccccc35)CCCC4)CC[C@]3(C)C(=CCC4[C@@]5(C)CC[C@H](O)C(C)(C)C5CC[C@]43C)C2C1` (stereo partly drawn) [Compound A3], on hAChE, the IC50 is 0.775 ± 0.28 µM and the “SI (selectivity index, hBuChE/hAChE)” value came to 3.59. Also, the IC50 at hBuChE (read-out: IC50 hBuChE) worked out at 2.78 ± 0.0607 µM.
As to `CC1(C)CC[C@]2(C(=O)NCCCCNc3c4c(nc5cc(F)ccc35)CCCC4)CC[C@]3(C)C(=CCC4[C@@]5(C)CC[C@H](O)C(C)(C)C5CC[C@]43C)C2C1` (stereo partly drawn) [Compound F3, N-(4-((6-fluoro-1,2,3,4-tetrahydroacridin-9-yl)amino)butyl)-olean-12-en-28-amide], the concentration for half-maximal inhibition (IC50) on hAChE (setting [4]) and against hBuChE (IC50 hBuChE) was greater than 10 µM throughout.
Regarding `CC1(C)CC[C@]2(C(=O)NCCCCCCNc3c4c(nc5cc(Cl)ccc35)CCCC4)CC[C@]3(C)C(=CCC4[C@@]5(C)CC[C@H](O)C(C)(C)C5CC[C@]43C)C2C1` (stereo partly drawn) [Compound B4], at hAChE, the IC50 turned out to be 0.0144 ± 0.00189 µM and the “SI (selectivity index, hBuChE/hAChE)” value was greater than 695.89. For the same compound, the IC50 against hBuChE (IC50 hBuChE) is greater than 10 µM. Moreover, in the data set with SH-SY5Y cells (50 μM), the “effect on SH-SY5Y cell viability” value is listed as “little effect”. For the same compound, in the data set with HepG2 cells [1] (50 μM), the “HepG2 cell viability rate” value is listed as “close to that of the control group”. In addition, in the data set on HepG2 cells [2], the “percentage of apoptotic cells” value is listed as 7.69%. In addition, the “intracellular ROS levels (in words)” value with HepG2 cells [3] was “significantly lower than that in the tacrine group”.
`CC1(C)CC[C@]2(C(=O)NCCCNc3c4c(nc5cc(F)ccc35)CCCC4)CC[C@]3(C)C(=CCC4[C@@]5(C)CC[C@H](O)C(C)(C)C5CC[C@]43C)C2C1` (stereo partly drawn) [Compound F2]: the half-maximal inhibitory concentration (IC50) at hAChE and on hBuChE (IC50 hBuChE) was greater than 10 µM each time.
As for `CC1(C)CC[C@]2(C(=O)NCCCCCCNc3c4c(nc5c(F)cccc35)CCCC4)CC[C@]3(C)C(=CCC4[C@@]5(C)CC[C@H](O)C(C)(C)C5CC[C@]43C)C2C1` (stereo partly drawn) [Compound G5, N-(6-((5-fluoro-1,2,3,4-tetrahydroacridin-9-yl)amino)hexyl)-olean-12-en-28-amide], the IC50 against hAChE was greater than 10 µM; at hBuChE (read-out: IC50 hBuChE), 3.81 ± 1.04 µM. Besides, on hAChE, the “SI (selectivity index, hBuChE/hAChE)” value is reported as less than 0.38.
Consider `CC1(C)CC[C@]2(C(=O)NCCCNc3c4c(nc5c(Br)cccc35)CCCC4)CC[C@]3(C)C(=CCC4[C@@]5(C)CC[C@H](O)C(C)(C)C5CC[C@]43C)C2C1` (stereo partly drawn) [Compound E2], for which the IC50 at hAChE (setting [4]) and on hBuChE (IC50 hBuChE) was greater than 10 µM each time.
Take `CC1(C)CC[C@]2(C(=O)NCCNc3c4c(nc5cc(Br)ccc35)CCCC4)CC[C@]3(C)C(=CCC4[C@@]5(C)CC[C@H](O)C(C)(C)C5CC[C@]43C)C2C1` (stereo partly drawn) [Compound D1, N-(2-((6-bromo-1,2,3,4-tetrahydroacridin-9-yl)amino)ethyl)-olean-12-en-28-amide]: the IC50 at hAChE and at hBuChE (read-out: IC50 hBuChE) was greater than 10 µM each time.
As for `CC1(C)CC[C@]2(C(=O)NCCNc3c4c(nc5cc(F)ccc35)CCCC4)CC[C@]3(C)C(=CCC4[C@@]5(C)CC[C@H](O)C(C)(C)C5CC[C@]43C)C2C1` (stereo partly drawn) [Compound F1, N-(2-((6-fluoro-1,2,3,4-tetrahydroacridin-9-yl)amino)ethyl)-olean-12-en-28-amide], the IC50 against hAChE and at hBuChE (read-out: IC50 hBuChE) was greater than 10 µM in each case.
On to `CC1(C)CC[C@]2(C(=O)NCCCNc3c4c(nc5c(F)cccc35)CCCC4)CC[C@]3(C)C(=CCC4[C@@]5(C)CC[C@H](O)C(C)(C)C5CC[C@]43C)C2C1` (stereo partly drawn) [Compound G2], for which the figures for the 50% inhibitory concentration (IC50) against hAChE and at hBuChE (IC50 hBuChE) were greater than 10 µM and 0.921 ± 0.0587 µM, respectively. Also, the “SI (selectivity index, hBuChE/hAChE)” value at hAChE is less than 0.09.
